Test results as given in patent US7399777B2, “Diarylcycloalkyl derivatives, processes for their preparation and their use as pharmceuticals” (Sanofi-Aventis Deutschland GmbH, priority 2001, dated 2008).

Molecular target: T1, human PPARα (Homo sapiens, UniProt Q07869)
T1 construct: expressed in transfected cells; host or cells: HEK cells (human embryo kidney), stably transfected with pcDNA3-GR-GAL4-humanPPARα and the luciferase reporter pdeltaMG4LZ
T1 sequence (Q07869 167-468): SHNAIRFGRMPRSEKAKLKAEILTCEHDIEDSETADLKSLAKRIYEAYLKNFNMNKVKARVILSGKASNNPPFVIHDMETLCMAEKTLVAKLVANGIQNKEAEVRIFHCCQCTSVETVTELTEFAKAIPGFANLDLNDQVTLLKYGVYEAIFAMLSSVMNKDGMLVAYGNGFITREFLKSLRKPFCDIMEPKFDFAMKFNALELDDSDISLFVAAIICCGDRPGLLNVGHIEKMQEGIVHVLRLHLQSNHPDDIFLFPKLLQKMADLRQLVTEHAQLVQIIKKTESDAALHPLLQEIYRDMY
Assay: PPARα reporter cell line assay (stably transfected HEK cells, GR-GAL4-PPARα fusion protein, firefly luciferase reporter)
Format: cell-based
Conditions: agonist activity in HEK PPARα reporter cell line; 24 h incubation; luciferase luminescence
Description: To analyze the effectiveness of substances which bind to human PPARα, activating it in agonistic manner, a stable transfected HEK cell line (HEK=human embryo kidney) designated here as “PPARα reporter cell line” is used. It contains two genetic elements, a firefly luciferase reporter element and a PPARα fusion protein (GR-GAL4-PPARα) which controls the expression of the firefly luciferase reporter element in a PPARα ligand dependent way.
The PPARα reporter cell line was established in two steps: First, the firefly luciferase reporter element was constructed and stably transfected into HEK cells. Five DNA binding sites for the yeast transcription factor GAL4 (five repetitions of the sequence 5′-CGGAGTACTGTCCTCCGAG-3′) (SEQ ID NO:1) were cloned 5′ upstream of a 68 bp minimal RNA polymerase II promoter from the GR mouse mammary tumor virus long terminal repeat (accession # V01175) providing a CCAAT-box as well as a TATA-element. Cloning and sequencing was done as described by Sambrook J. et. al. (Molecular cloning, Cold Spring Harbor Laboratory Press, 1989). The complete Photinus pyralis luciferase gene (accession # M 15077) was cloned 3′ downstream of the GAL4 binding sites and the MMTV minimal promoter. The firefly luciferase reporter element consisting of 5 GAL4 binding sites, the MMTV minimal promoter and the full length luciferase gene was recloned into a plasmid backbone harboring a Zeozin resistence gene leading to plasmid “pdeltaMG4LZ”. This vector was transfected in HEK cells as described by Ausubel, F. M. et al. (Current protocols in molecular biology, Vol. 1-3, John Wiley & Sons, Inc., 1995). Stable clones have been selected using Zeozin as a selection agent (0.5 mg/ml).
In a second step, the PPARα fusion protein (GR-GAL4-PPARα) that controls expression of the firefly luciferase reporter element, was stably integrated in this cell background. For this purpose the cDNAs coding for the N-terminal 76 amino acids of the human glucocorticoid receptor (“GR”, accession # P04150) have been linked to amino acids 1-147 of the yeast GAL4-protein (accession # P04386) followed by the ligand binding domain of humanPPARα (amino acids S167-Y468, accession # S74349). The GR-GAL4-human PPARα construct was cloned into plasmid pcDNA3 (Invitrogen) were its expression is driven constitutively by the Cytomegalovirus promoter. The plasmid pcDNA3-GR-GAL4-humanPPARα was transfected in a stable HEK-cell clone that already contained the firefly luciferase reporter element described above. A double-transfected cell line containing both, the firefly luciferase reporter element as well as the GR-GAL4-humanPPARα fusion protein, has been selected on medium supplemented with Zeozin (0.5 mg/ml) and G418 (0.5 mg/ml).
The activity of PPARα agonists is determined in a three day test, described below:
The PPARα reporter cell line is cultivated up to 80% confluence in DMEM medium (# 41965-039, Life Technologies) with the following additives: 10% cs-FCS (fetal calf serum, #SH-30068.03, Hyclone), antibiotics (0.5 mg/ml of zeozin [#R250-01, Invitrogen], 0.5 mg/ml of G418 [#10131-019, Life Technologies], 1% penicillin streptomycin solution [#15140-031, Life Technologies]) and 2 mM of L-glutamine (#25030-032, Life Technologies). Cultivation is carried out in standard cell culture bottles (# 33111, Becton Dickinson) in a cell culture incubator at 37° C. and 5% CO2. The 80% confluent cells are washed once with 30 ml of PBS (#14190-094, Life Technologies), treated with 2 ml of trypsin solution (#25300-054, Life Technologies) at 37° C. for 2 min, taken up in 5 ml of the medium described above and counted in a cell counter. After dilution to 500,000 cells/ml, in each case 35,000 cells are sown into each well of a 96-well microtiter plate having a clear plastic bottom (#3610, Coming Costar). The plates are incubated in a cell incubator at 37° C. and 5% CO2 for 24 h.
The PPARα agonists to be tested are dissolved in DMSO at a concentration of 10 mM. […]

EC50 [nM] | Compound
1 | 2-{3-[2-(4-Fluorophenyl)oxazol-4-ylmethoxy]cyclohexyloxy}-6-methylbenzoic acid [Example I]
0.9 | Cc1cccc(CO[C@@H]2CCC[C@H](COCc3coc(-c4ccc(F)cc4)n3)C2)c1C(=O)O (racemic) [Example XXIV, rac-cis-2-{3-[2-(4-Fluorophenyl)oxazol-4-ylmethoxymethyl]cyclohexyloxymethyl}-6-methylbenzoic acid]
1.4 | Cc1cccc(CC[C@H]2CCC[C@H](OCc3coc(-c4ccc(F)cc4)n3)C2)c1C(=O)O (racemic) [XXIX, rac-trans-2-(2-{3-[2-(4-Fluorophenyl)oxazol-4-ylmethoxy]cyclohexyl}ethyl)-6-methylbenzoic acid]
1.3 | Cc1cccc(COC[C@@H]2CCC[C@H](OCc3coc(-c4ccc(F)cc4)n3)C2)c1C(=O)O (racemic) [XXV, rac-cis-2-{3-[2-(4-Fluorophenyl)oxazol-4-ylmethoxy]cyclohexylmethoxymethyl}-6-methylbenzoic acid]
0.67 | Cc1cccc(CC[C@@H]2CCC[C@H](OCc3coc(-c4ccc(F)cc4)n3)C2)c1C(=O)O (racemic) [XXVIII, rac-cis-2-(2-{3-[2-(4-Fluorophenyl)oxazol-4-ylmethoxy]cyclohexyl}ethyl)-6-methylbenzoic acid]
0.3 | Cc1cccc(CO[C@@H]2CCC[C@H](OCc3coc(-c4ccc(F)cc4)n3)C2)c1C(=O)O (relative stereo) [Example II, (+)-cis-2-(3-(2-(4-Fluorophenyl)oxazol-4-ylmethoxy)cyclohexyloxymethyl)-6-methylbenzoic acid]
0.3 | COc1ccc(-c2nc(CO[C@H]3CCC[C@@H](OCc4cccc(C)c4C(=O)O)C3)co2)cc1 (relative stereo) [IV, cis-2-(3-(2-(4-Methoxyphenyl)oxazol-4-ylmethoxy)cyclohexyloxymethyl)-6-methylbenzoic acid]
0.18 | Cc1cccc(CO[C@H]2CCC[C@@H](OCc3coc(-c4ccccc4)n3)C2)c1C(=O)O (single isomer, unassigned) [VI, cis-2-Methyl-6-[3-(2-phenyloxazol-4-ylmethoxy)cyclohexyloxymethyl]benzoic acid]
0.5 | Cc1cccc(CO[C@H]2CCC[C@@H](OCc3nc(-c4ccc(F)cc4)oc3C)C2)c1C(=O)O (stereo in doubt) [Example X, cis-2-{3-[2-(4-Fluorophenyl)-5-methyloxazol-4-ylmethoxy]cyclohexyloxymethyl}-6-methylbenzoic acid]
0.04 | Cc1cccc(CO[C@@H]2CCC[C@H](OCc3nc(-c4ccc(F)cc4)oc3C)C2)c1C(=O)O (stereo in doubt) [IX, cis-2-(3-[2-(4-Fluorophenyl)-5-methyloxazol-4-ylmethoxy]cyclohexyloxymethyl}-6-methylbenzoic acid]
4 | Cc1ccc(-c2nc(CO[C@@H]3CCC[C@H](OCc4cccc(C)c4C(=O)O)C3)co2)cc1 (stereo in doubt) [VII, cis-2-Methyl-6-[3-(2-p-tolyloxazol-4-ylmethoxy)cyclohexyloxymethyl]benzoic acid]
0.04 | Cc1ccc(-c2nc(CO[C@H]3CCC[C@@H](OCc4cccc(C)c4C(=O)O)C3)co2)cc1 (stereo in doubt) [VIII, cis-2-Methyl-6-[3-(2-p-tolyloxazol-4-ylmethoxy)cyclohexyloxymethyl]benzoic acid]
0.19 | Cc1cccc(CO[C@@H]2CCC[C@H](OCc3nc(-c4cccc(C(F)(F)F)c4)oc3C)C2)c1C(=O)O [Example L, 2-{1R,3S-3-[2-(3-Trifluoromethylphenyl)-5-methyloxazol-4-ylmethoxy]cyclohexyloxymethyl}-6-methylbenzoic acid]
0.2 | Cc1cccc(CO[C@@H]2CCC[C@H](OCc3nc(-c4ccccc4)oc3C)C2)c1C(=O)O [Example LX, 2-Methyl-6-[1R,3S-3-(5-methyl-2-phenyloxazol-4-ylmethoxy)cyclohexyloxymethyl]benzoic acid]
10 | Cc1cccc(CO[C@H]2CCC[C@@H](OCc3nc(-c4ccccc4)oc3C)C2)c1C(=O)O [Example LXI, 2-Methyl-6-[1S,3R-3-(5-methyl-2-phenyloxazol-4-ylmethoxy)cyclohexyloxymethyl]benzoic acid]
0.11 | Cc1cccc(CO[C@@H]2CCC[C@H](OCc3nc(-c4ccc(C(C)C)cc4)oc3C)C2)c1C(=O)O [Example LXIX, 2-Methyl-6-[(1R,3S)-3-(5-methyl-2-(4-(2-propyl)-phenyl)-oxazol-4-ylmethoxy)-cyclohexyloxymethyl]-benzoic acid]
0.52 | COc1cccc(-c2nc(CO[C@H]3CCC[C@@H](OCc4cccc(C)c4C(=O)O)C3)c(C)o2)c1 [IL, 2-{1R,3S-3-[2-(3-Methoxy-phenyl)-5-methyl-oxazol-4-ylmethoxy]-cyclohexyloxymethy}-6-methylbenzoic acid]
0.31 | Cc1cccc(CO[C@@H]2CCC[C@H](OCc3nc(-c4cccc(Cl)c4)oc3C)C2)c1C(=O)O [LI, 2-{1R,3S-3-[2-(3-Chlorophenyl)-5-methyloxazol-4-ylmethoxy]cyclohexyloxymethyl}-6-methylbenzoic acid]
0.1 | Cc1cccc(CO[C@@H]2CCC[C@H](OCc3nc(-c4ccc(Cl)cc4)oc3C)C2)c1C(=O)O [LII, 2-{1R,3S-3-[2-(4-Chlorophenyl)-5-methyloxazol-4-ylmethoxy]cyclohexyloxymethyl}-6-methylbenzoic acid]
0.4 | Cc1cccc(-c2nc(CO[C@H]3CCC[C@@H](OCc4cccc(C)c4C(=O)O)C3)c(C)o2)c1 [LIII, 2-{1R,3S-3-[2-(3-Methylphenyl)-5-methyloxazol-4-ylmethoxy]cyclohexyloxymethyl}-6-methylbenzoic acid]
0.08 | Cc1ccc(-c2nc(CO[C@H]3CCC[C@@H](OCc4cccc(C)c4C(=O)O)C3)c(C)o2)cc1C [LIV, 2-{1R,3S-3-[2-(3,4-Dimethylphenyl)-5-methyloxazol-4-ylmethoxy]cyclohexyloxymethyl}-6-methylbenzoic acid]
0.62 | Cc1cccc(CO[C@@H]2CCC[C@H](OCc3nc(-c4cccc(C#N)c4)oc3C)C2)c1C(=O)O [LIX, 2-{1R,3S-3-[2-(3-Cyanophenyl)-5-methyloxazol-4-ylmethoxy]cyclohexyloxymethyl}-6-methylbenzoic acid]
0.09 | Cc1ccc(-c2nc(CO[C@H]3CCC[C@@H](OCc4cccc(C)c4C(=O)O)C3)c(C)o2)c(C)c1 [LV, 2-{1R,3S-3-[2-(2,4-Dimethylphenyl)-5-methyloxazol-4-ylmethoxy]cyclohexyloxymethyl}-6-methylbenzoic acid]
0.54 | Cc1ccccc1-c1nc(CO[C@H]2CCC[C@@H](OCc3cccc(C)c3C(=O)O)C2)c(C)o1 [LVI, 2-{1R,3S-3-[2-(2-Methylphenyl)-5-methyloxazol-4-ylmethoxy]cyclohexyloxymethyl}-6-methylbenzoic acid]
